Patent US9909219B2, “Slurry biocide” (ECOLAB USA INC., priority 2014, dated 2018)

Tests used:
[1] = tested on: Sulfate Reducing Bacteria; assay: Biocide treatment of pipeline makeup water (river water): sulfate reducing bacteria count; type: cell-based
Excerpt: (§1) Two water samples collected directly of makeup water of a pipeline sourced form river water, were submitted to biocide treatment. One sample was highly contaminated with microorganisms (1700 CFU/mL) while the other was less contaminated (120 CFU/mL). […] There is a dramatic reduction in required dosage using oxidizing biocide ([…]) (Tests 3, 4 and 7).

Total Aerobic Bacteria = assay: Biocide treatment of pipeline makeup water (river water): total aerobic bacteria count; type: cell-based
Excerpt: as §1

SMILES | Final Count Sulfate Reducing Bacteria ([1]; Test 1, initial count 30 CFU/mL, dosage 500 ppm) | Final Count Sulfate Reducing Bacteria ([1]; Test 5, initial count <10 CFU/mL, dosage 500 ppm) | Final Count Total Aerobic Bacteria (Total Aerobic Bacteria; Test 1, initial count 1700 CFU/mL, dosage 500 ppm) | Final Count Total Aerobic Bacteria (Total Aerobic Bacteria; Test 5, initial count 120 CFU/mL, dosage 500 ppm) | Final Count Sulfate Reducing Bacteria ([1]; Test 3, initial count 30 CFU/mL, dosage 5 ppm) | Final Count Sulfate Reducing Bacteria ([1]; Test 4, initial count <10 CFU/mL, dosage 4 ppm) | Final Count Sulfate Reducing Bacteria ([1]; Test 7, initial count <10 CFU/mL, dosage 1.5 ppm) | Final Count Total Aerobic Bacteria (Total Aerobic Bacteria; Test 3, initial count 1700 CFU/mL, dosage 5 ppm) | Final Count Total Aerobic Bacteria (Total Aerobic Bacteria; Test 4, initial count 120 CFU/mL, dosage 4 ppm) | Final Count Total Aerobic Bacteria (Total Aerobic Bacteria; Test 7, initial count 120 CFU/mL, dosage 1.5 ppm)
O=CCCCC=O [A, Glutaraldehyde] | 10 CFU/mL | <10 CFU/mL | 330 CFU/mL | <27 CFU/mL | – | – | – | – | – | –
[O][Cl+][O-] [ClO2, chlorine dioxide] | – | – | – | – | <10 CFU/mL | <10 CFU/mL | <10 CFU/mL | 30 CFU/mL | <27 CFU/mL | <27 CFU/mL
